Assay results: the supplement of paper PMC10883282
± gives the standard deviation of the averaged measurements.

Tested on: KHOS-NP
Test: relative viability vs DMSO control (72 h) (fraction); higher = more viable cells
Procedure, shortened: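 Serially diluted compound, 2.5 µl from source plates spanning 10 mM to 0.0002 mM, was added 24 h after sarcoma cell lines were seeded in 384-well plates at densities targeting 80–90% confluence. Plates then sat 72 h at 37 °C, 5% CO2, with 0.1% DMSO vehicle and a 5 µM positive control. Relative viability came from ATPLite as percent growth, averaged over up to triplicate wells, and was rescaled with 1 as full and 0 as none.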

O=C(Nc1cnn2ccc(N3CCC[C@@H]3c3cc(F)ccc3F)nc12)N1CC[C@H](O)C1 [Larotrectinib]
relative viability (0.00017 µM): 1.1 ± 0.025
relative viability (0.00051 µM): 1.09 ± 0.013
relative viability (0.00152 µM): 1.08 ± 0.016
relative viability (0.00457 µM): 1.09 ± 0.024
relative viability (0.01372 µM): 1.1 ± 0.016
relative viability (0.04115 µM): 1.06 ± 0.03
relative viability (0.1235 µM): 1.05 ± 0.053
relative viability (0.3704 µM): 1.08 ± 0.021
relative viability (1.111 µM): 1.05 ± 0.027
relative viability (3.333 µM): 1.02 ± 0.014
relative viability (10 µM): 1.01 ± 0.038

COCc1c(-c2cc3cc(C)cc(OC)c3s2)c2c(N)ncnn2c1CN1CCNC(=O)C1 [Rogaratinib]
relative viability (0.00017 µM): 1.09 ± 0.019
relative viability (0.00051 µM): 1.1 ± 0.014
relative viability (0.00152 µM): 1.08 ± 0.012
relative viability (0.00457 µM): 1.09 ± 0.0024
relative viability (0.01372 µM): 1.08 ± 0.032
relative viability (0.04115 µM): 1.06 ± 0.016
relative viability (0.1235 µM): 1.06 ± 0.018
relative viability (0.3704 µM): 1.06 ± 0.017
relative viability (1.111 µM): 1.09 ± 0.023
relative viability (3.333 µM): 1.04 ± 0.09
relative viability (10 µM): 0.877 ± 0.031

Cn1cnc2c(F)c(Nc3ccc(Br)cc3F)c(C(=O)NOCCO)cc21 [Binimetinib]
relative viability (0.00017 µM): 1.06 ± 0.034
relative viability (0.00051 µM): 1.09 ± 0.015
relative viability (0.00152 µM): 1.081 ± 0.004
relative viability (0.00457 µM): 1.097 ± 0.0049
relative viability (0.01372 µM): 1.06 ± 0.045
relative viability (0.04115 µM): 0.943 ± 0.075
relative viability (0.1235 µM): 0.857 ± 0.012
relative viability (0.3704 µM): 0.802 ± 0.066
relative viability (1.111 µM): 0.425 ± 0.015
relative viability (3.333 µM): 0.291 ± 0.016
relative viability (10 µM): 0.276 ± 0.012

Cn1cc(-c2cc3c(N4CCN(c5ncc([C@@](C)(N)c6ccc(F)cc6)cn5)CC4)ncnn3c2)cn1 [Avapritinib]
relative viability (0.00017 µM): 1.021 ± 0.0094
relative viability (0.00051 µM): 1.05 ± 0.031
relative viability (0.00152 µM): 1.02 ± 0.027
relative viability (0.00457 µM): 1.04 ± 0.029
relative viability (0.01372 µM): 1.03 ± 0.017
relative viability (0.04115 µM): 1.03 ± 0.015
relative viability (0.1235 µM): 1 ± 0.022
relative viability (0.3704 µM): 0.948 ± 0.041
relative viability (1.111 µM): 0.861 ± 0.024
relative viability (3.333 µM): 0.685 ± 0.033
relative viability (10 µM): 0.586 ± 0.048

C[C@]1(O)C[C@@H](c2nc(-c3ccc4ccc(-c5ccccc5)nc4c3)c3c(N)nccn32)C1 [Linsitinib]
relative viability (0.00017 µM): 1.11 ± 0.025
relative viability (0.00051 µM): 1.09 ± 0.011
relative viability (0.00152 µM): 1.07 ± 0.025
relative viability (0.00457 µM): 1.08 ± 0.011
relative viability (0.01372 µM): 1.08 ± 0.026
relative viability (0.04115 µM): 1.08 ± 0.012
relative viability (0.1235 µM): 1.08 ± 0.029
relative viability (0.3704 µM): 1.07 ± 0.05
relative viability (1.111 µM): 1.06 ± 0.064
relative viability (3.333 µM): 1.02 ± 0.027
relative viability (10 µM): 0.8696 ± 0.0082

Cc1cc(Nc2ncnc3ccc(NC4=NC(C)(C)CO4)cc23)ccc1Oc1ccn2ncnc2c1 [Tucatinib]
relative viability (0.00017 µM): 1.09 ± 0.023
relative viability (0.00051 µM): 1.14 ± 0.021
relative viability (0.00152 µM): 1.13 ± 0.014
relative viability (0.00457 µM): 1.11 ± 0.029
relative viability (0.01372 µM): 1.09 ± 0.018
relative viability (0.04115 µM): 1.09 ± 0.025
relative viability (0.1235 µM): 1.12 ± 0.017
relative viability (0.3704 µM): 1.1 ± 0.017
relative viability (1.111 µM): 1.12 ± 0.016
relative viability (3.333 µM): 1.09 ± 0.02
relative viability (10 µM): 1.11 ± 0.014

Nc1cc(C(F)(F)F)c(-c2cc(N3CCOCC3)nc(N3CCOCC3)n2)cn1 [Buparlisib]
relative viability (0.00017 µM): 1.067 ± 0.01
relative viability (0.00051 µM): 1.03 ± 0.024
relative viability (0.00152 µM): 1.07 ± 0.038
relative viability (0.00457 µM): 1.06 ± 0.012
relative viability (0.01372 µM): 1.07 ± 0.033
relative viability (0.04115 µM): 1.05 ± 0.013
relative viability (0.1235 µM): 1.07 ± 0.022
relative viability (0.3704 µM): 1.07 ± 0.048
relative viability (1.111 µM): 0.944 ± 0.053
relative viability (3.333 µM): 0.426 ± 0.026
relative viability (10 µM): 0.266 ± 0.013

C[C@@H]1CCN(C(=O)CC#N)C[C@@H]1N(C)c1ncnc2[nH]ccc12 [Tofacitinib]
relative viability (0.00017 µM): 1.08 ± 0.037
relative viability (0.00051 µM): 1.092 ± 0.01
relative viability (0.00152 µM): 1.08 ± 0.031
relative viability (0.00457 µM): 1.09 ± 0.036
relative viability (0.01372 µM): 1.05 ± 0.034
relative viability (0.04115 µM): 1.07 ± 0.053
relative viability (0.1235 µM): 1.06 ± 0.049
relative viability (0.3704 µM): 1.05 ± 0.029
relative viability (1.111 µM): 1.03 ± 0.011
relative viability (3.333 µM): 1.02 ± 0.051
relative viability (10 µM): 0.941 ± 0.015

COc1cc2/c(=N/c3ccc(Br)cc3F)nc[nH]c2cc1OCC1CCN(C)CC1 [Vandetanib]
relative viability (0.00017 µM): 1.05 ± 0.032
relative viability (0.00051 µM): 1.036 ± 0.0034
relative viability (0.00152 µM): 1.04 ± 0.014
relative viability (0.00457 µM): 1.05 ± 0.018
relative viability (0.01372 µM): 1.05 ± 0.045
relative viability (0.04115 µM): 1.04 ± 0.029
relative viability (0.1235 µM): 1.05 ± 0.024
relative viability (0.3704 µM): 1.03 ± 0.015
relative viability (1.111 µM): 1.02 ± 0.017
relative viability (3.333 µM): 0.888 ± 0.044
relative viability (10 µM): 0.551 ± 0.023

CCCS(=O)(=O)Nc1ccc(F)c(C(=O)c2c[nH]c3ncc(-c4ccc(Cl)cc4)cc23)c1F [Vemurafenib]
relative viability (0.00017 µM): 1.08 ± 0.029
relative viability (0.00051 µM): 1.074 ± 0.0078
relative viability (0.00152 µM): 1.08 ± 0.032
relative viability (0.00457 µM): 1.09 ± 0.017
relative viability (0.01372 µM): 1.09 ± 0.025
relative viability (0.04115 µM): 1.08 ± 0.023
relative viability (0.1235 µM): 1.09 ± 0.03
relative viability (0.3704 µM): 1.08 ± 0.03
relative viability (1.111 µM): 1.07 ± 0.034
relative viability (3.333 µM): 1.06 ± 0.018
relative viability (10 µM): 0.601 ± 0.031

C=CC(=O)N1CCC([C@@H]2CCNc3c(C(N)=O)c(-c4ccc(Oc5ccccc5)cc4)nn32)CC1 [Zanubrutinib]
relative viability (0.00017 µM): 1.01 ± 0.015
relative viability (0.00051 µM): 1.03 ± 0.024
relative viability (0.00152 µM): 1.03 ± 0.032
relative viability (0.00457 µM): 1.01 ± 0.015
relative viability (0.01372 µM): 1.041 ± 0.0094
relative viability (0.04115 µM): 1.05 ± 0.018
relative viability (0.1235 µM): 1.01 ± 0.013
relative viability (0.3704 µM): 1.04 ± 0.015
relative viability (1.111 µM): 1.02 ± 0.023
relative viability (3.333 µM): 1.01 ± 0.029
relative viability (10 µM): 1.05 ± 0.03

CC(=O)Nc1cccc(-n2c(=O)n(C3CC3)c(=O)c3c(Nc4ccc(I)cc4F)n(C)c(=O)c(C)c32)c1 [Trametinib]
relative viability (0.00017 µM): 1.08 ± 0.012
relative viability (0.00051 µM): 1.09 ± 0.014
relative viability (0.00152 µM): 1.05 ± 0.019
relative viability (0.00457 µM): 0.975 ± 0.048
relative viability (0.01372 µM): 0.532 ± 0.055
relative viability (0.04115 µM): 0.312 ± 0.013
relative viability (0.1235 µM): 0.278 ± 0.0054
relative viability (0.3704 µM): 0.275 ± 0.011
relative viability (1.111 µM): 0.256 ± 0.0076
relative viability (3.333 µM): 0.25 ± 0.014
relative viability (10 µM): 0.231 ± 0.02

C=CC(=O)N1CCC[C@@H](n2nc(-c3ccc(Oc4ccccc4)cc3)c3c(N)ncnc32)C1 [Ibrutinib]
relative viability (0.00017 µM): 1.08 ± 0.025
relative viability (0.00051 µM): 1.086 ± 0.0071
relative viability (0.00152 µM): 1.08 ± 0.025
relative viability (0.00457 µM): 1.07 ± 0.013
relative viability (0.01372 µM): 1.05 ± 0.032
relative viability (0.04115 µM): 1.04 ± 0.014
relative viability (0.1235 µM): 1.05 ± 0.015
relative viability (0.3704 µM): 1.01 ± 0.045
relative viability (1.111 µM): 1.034 ± 0.01
relative viability (3.333 µM): 1.03 ± 0.043
relative viability (10 µM): 0.995 ± 0.043

Cc1ccc(F)c(NC(=O)Nc2ccc(-c3cccc4[nH]nc(N)c34)cc2)c1 [Linifanib]
relative viability (0.00017 µM): 1.1 ± 0.012
relative viability (0.00051 µM): 1.1 ± 0.016
relative viability (0.00152 µM): 1.09 ± 0.027
relative viability (0.00457 µM): 1.09 ± 0.024
relative viability (0.01372 µM): 1.05 ± 0.016
relative viability (0.04115 µM): 1.07 ± 0.015
relative viability (0.1235 µM): 1.052 ± 0.0063
relative viability (0.3704 µM): 1.05 ± 0.039
relative viability (1.111 µM): 1.03 ± 0.037
relative viability (3.333 µM): 0.968 ± 0.019
relative viability (10 µM): 1.01 ± 0.059

CC[C@H](Nc1ncnc2[nH]cnc12)c1nc2cccc(F)c2c(=O)n1-c1ccccc1 [Idelalisib]
relative viability (0.00017 µM): 1.117 ± 0.0096
relative viability (0.00051 µM): 1.12 ± 0.017
relative viability (0.00152 µM): 1.12 ± 0.022
relative viability (0.00457 µM): 1.105 ± 0.01
relative viability (0.01372 µM): 1.11 ± 0.041
relative viability (0.04115 µM): 1.11 ± 0.025
relative viability (0.1235 µM): 1.1 ± 0.046
relative viability (0.3704 µM): 1.1 ± 0.024
relative viability (1.111 µM): 1.085 ± 0.0061
relative viability (3.333 µM): 1.06 ± 0.043
relative viability (10 µM): 1.04 ± 0.019

CC(C)(C)c1cc(NC(=O)Nc2ccc(-c3cn4c(n3)sc3cc(OCCN5CCOCC5)ccc34)cc2)no1 [Quizartinib]
relative viability (0.00017 µM): 1.13 ± 0.012
relative viability (0.00051 µM): 1.1 ± 0.027
relative viability (0.00152 µM): 1.1 ± 0.019
relative viability (0.00457 µM): 1.08 ± 0.035
relative viability (0.01372 µM): 1.096 ± 0.0028
relative viability (0.04115 µM): 1.09 ± 0.013
relative viability (0.1235 µM): 1.069 ± 0.0099
relative viability (0.3704 µM): 1.07 ± 0.034
relative viability (1.111 µM): 1.05 ± 0.025
relative viability (3.333 µM): 0.998 ± 0.067
relative viability (10 µM): 0.99 ± 0.032
